“Also recorded” adds a separate entry of the source. Where no end group is shown, it is not given here. [ ]: non-standard residue; d: D form.
Columns and labels:
[1] = Biological activity of D-amino acid versions of ST100,038 (test not specified); conditions: tested against a control
Method: D-amino acid peptides can be made by generating a D-amino acid peptide with the same sequence as a L-amino acid peptide or by preparing a retro inverso form of a peptide. ST100,045 (SEQ ID NO.: 31) has the same sequence as ST100,038 (SEQ ID NO.: 29) was tested against ST100,059 (SEQ ID NO.: 30) which is the retro inverso version of ST100,038 and a control.

[2] = tested on: RPMI-8226 human myeloma xenografts; assay: RPMI-8226 human myeloma subcutaneous xenograft model; type: in vivo, mouse; conditions: scid mice, FIG. 16
Method: Anti-tumor efficacy of test peptides was evaluated against RPMI-8226 human myeloma xenografts implanted subcutaneously (sc) in severe compromised immunodeficient (scid) mice.
Studies generally consisted of randomly-assigned groups of 8 or 10 mice per group, which were implanted sc with myeloma fragments (30-40 mg). In addition to groups tested with test peptides, studies usually included a vehicle-treated control group and a positive control group treated with an agent known to be active in the RPMI-8226 model. In one type of schedule, mice were treated IP with either vehicle or test peptides starting one day after tumor implantation (implantation day defined as Day 0). Test peptides and vehicle were generally administered IP daily for 3-4 weeks.
Dosing solutions of the test peptides were prepared weekly and kept at −20° C. between injections. […] Each tumor was measured by caliper in two dimensions and converted to tumor mass using the formula for a prolate ellipsoid (a X b^2/2), where a is the longer dimension and b is the smaller dimension, and assuming unit density (1 mm^3=1 mg). Tumor measurements were recorded twice weekly. Body weights were also recorded twice weekly. Anti-tumor activity was assessed by the delay in tumor growth of the treated groups in comparison to the vehicle-treated control group, partial and complete regressions, and tumor-free survivors. […]

[3] = tested on: Bovine Retinal Endothelial Cells (BRE); assay: VEGF-mediated survival/proliferation of bovine retinal endothelial cells (WST1); type: cell-based; conditions: VEGF 25 ng/ml, 72 hours, FIG. 4 and 5
Method: (§1) The anti-angiogenic activities of the peptides were tested by measuring the level of inhibition of VEGF and bFGF mediated survival/proliferation of Bovine Retinal Endothelial Cells (BRE), Human Dermal Microvasculature Endothelial Cells, and Human Umbilical Vein Endothelial Cells, all of which are standard cell lines used to test anti-angiogenic compounds.
Bovine retinal endothelial (BRE) cells were maintained in Cambrex EG2 media. For non-adherent cell assays, on day one cells were starved for either 6 hours or overnight, then trypsinized and plated in 96-well plates in 100 μl of Optimem plus 1% fetal bovine serum (FBS). One hundred μl of Optimem plus 1% FBS was added to the wells containing, where appropriate, VEGF to a final concentration of 25 ng/ml, and the various peptides to final concentrations as described. For adherent cells, cells were plated in 96-well plates in complete media, allowed to adhere overnight, washed in starvation media (Optimem plus 1% FBS) and then starved during the day. At the end of the day, 100 μl of Optimem plus 1% FBS was added to the wells containing, where appropriate, VEGF to a final concentration of 25 ng/ml and the various peptides to final concentrations as described.
(§2) In all cases, after 72 hours incubation, the amount of live cells in each well was measured with the WST1 assay (Roche).

B16-F1 melanoma cells = assay: Subcutaneous B16 melanoma tumor growth in vivo; design: species or system mouse; conditions: 20 mg/kg daily IP; for Inhibition of tumor growth: vs untreated controls, FIG. 12 and 14
Method: Because of the importance of the angiogenic process for tumorigenesis, miniproteins as described herein, were hypothesized to show good anti-tumor activity. The peptides of the invention were tested in an in vivo model of anti-tumor activity. This model compares the growth of subcutaneous B16 melanoma tumor in vivo either untreated or treated with various amount of miniproteins described in this application. This model is widely accepted in the art as a model to test the anti-tumor activity of compounds that inhibit tumor growth because they have anti-angiogenic activity.
Male C57BL/6 mice were obtained with a mean body weight of 20±2 g. Mouse B16-F1 melanoma cells were implanted subcutaneously (5×10^5 cell per animal). Peptides (formulated in water) were administered ip daily at the amount indicated starting the day after cells injection. In general, tumors became palpable around 9 days after injection of cells. Tumor were then measured every 2 days.

[4] = Heparin binding activity, Hi Trap Heparin HP column, NaCl step elution; conditions: for [NaCl] for elution: heparin column, step gradient in 10 mM NaH2PO4 pH 7
Source text: Liquid chromatography was used to determine the relative levels of heparin binding activity of the individual heparin binding domains and of the anti-angiogenic miniproteins that contains them. In this assay, the strength of the heparin binding activity is proportional to the amount of NaCl that is required to elute the peptide bound to the heparin column. Peptides with low binding activity are eluted with lower NaCl concentration, whereas higher concentrations of NaCl are required for peptides with higher binding activity.
Hi Trap Heparin HP column (1 ml, Amersham Biosciences) was equilibrated with 10 column volumes (CV) of equilibration (EQ) buffer=10 mM NaH2PO4 pH 7. All buffers were loaded onto columns via syringes. 500 μl fractions are collected (flow rate=1 ml/minute). 500 μg of peptide (1 mg/ml, resuspended in EQ buffer) was added to each column and the flow through was collected for analysis. The columns were then washed with 3 CV of EQ buffer. Peptides are then eluted with a step gradient of 500, 625, 750, 875 mM NaCl in EQ buffer, 2 CV per each step. A final step of 3 CV of 1000 mM NaCl in EQ buffer was collected in 500 μl fractions. The A210 nm was measured using EQ and elution buffers as blanks.

[5] = tested on: Human Dermal Microvasculature Endothelial Cells; assay: bFGF-mediated survival/proliferation of human dermal microvasculature endothelial cells; type: cell-based; conditions: 30, 100, and 200 μg/ml, FIG. 8
Method: as §1, §2
(§3) In a further experiment, the anti-angiogenic activity of peptide ST100,061 (SEQ ID NO.: 3), a derivative of ST100,032 (SEQ-ID NO.: 1), at concentrations of 30, 100, and 200 μg/ml was tested by measuring the level of inhibition of VEGF and bFGF mediated survival/proliferation in human dermal microvasculature endothelial cells.

[6] = tested on: Human Dermal Microvasculature Endothelial Cells; assay: VEGF-mediated survival/proliferation of human dermal microvasculature endothelial cells; type: cell-based; conditions: 30, 100, and 200 μg/ml, FIG. 8
Method: as §1, §2, §3

L1210 = assay: Tumor cell proliferation (WST-1), L1210; type: cell-based, mouse; conditions: FIG. 11
Method: Peptides to be tested were prepared at a stock concentration of 10 mM in sterile phosphate buffered saline. Cancer cell lines obtained from the American Type Culture Collection (MG-63, HT1080, A498, BxPC3, 786-0, PC-3, B16F1, B16F10, P388D1, Jurkat, MOLT4, THP-1, U-937, L1210, RPMI 8226, NCI H929, U266B1, K562) were cultured under appropriate conditions as described in the literature. Cell culture media and reagents were obtained from ATCC (Manassas, Va.), Invitrogen (Carlsbad, Calif.) or Mediatech (Herndon, Va.). Exponentially growing cultures were used for cell proliferation assays. Adherent cells were plated at a concentration of 100000 cells per milliter in growth media overnight (18-24 h) and treated the next day in a low serum media (growth media with 1% FBS for MG-63, HT1080, A498, BxPC3, PC-3, B16F1, B16F10. 786-0 cells were treated in media with 5% FBS). Suspension cell lines (P388D1, Jurkat, MOLT4, THP-1, U-937, L1210, RPMI 8226, NCI H929, U266B1, and K562) were diluted to a concentration of 100,000 cells per ml and treated on the same day with peptides. Peptides were diluted in treatment media and cells were treated for 48 or 72 hours depending on the cell line. Each dose was tested in triplicate for each experiment, and experiments were repeated for a minimum of three discrete times. After incubation, the relative number of cells was determined using WST-1 (Roche Applied Science). A 9.5 μl aliquot of WST-1 was added to each well. The plate was immediately read at 440 nm using a Bio-Tek PowerWave XS microplate reader, incubated for 2-3 hours at 37° C. and then read again. Cell proliferation was determined as the percent of the control cell proliferation. The absorbance of each well at time 0 was subtracted from the value of the final reading. Afterwards the blank values were averaged and subtracted from each test and control value. Finally, each test absorbance was divided by the average of the control absorbances and multiplied by 100 to obtain the percent of control. […]

[7] = tested on: Human Umbilical Vein Endothelial Cells; assay: bFGF-mediated survival/proliferation of human umbilical vein endothelial cells (WST1); type: cell-based; conditions: FIG. 6, 9, 10, 17
Method: as §1
Human umbilical cord endothelial (HUVEC) cells were maintained in Cambrex EGM-2MV media. On day one, cells were starved overnight in 1% FBS in M200 media (Cascade Biologicals). The morning after, the media were replaced with serum-free media (control) or media containing 25 ng/ml of human VEGF165 and the various peptides to final concentrations as described.
as §2

tumor cells = assay: Ability to induce tumor cell death (general statement); type: cell-based
Method: Peptides to be tested were prepared at a stock concentration of 10 mM in sterile phosphate buffered saline. Cancer cell lines obtained from the American Type Culture Collection (MG-63, HT1080, A498, BxPC3, 786-0, PC-3, B16F1, B16F10, P388D1, Jurkat, MOLT4, THP-1, U-937, L1210, RPMI 8226, NCI H929, U266B1, K562) were cultured under appropriate conditions as described in the literature. Cell culture media and reagents were obtained from ATCC (Manassas, Va.), Invitrogen (Carlsbad, Calif.) or Mediatech (Herndon, Va.). Exponentially growing cultures were used for cell proliferation assays. […] After incubation, the relative number of cells was determined using WST-1 (Roche Applied Science). […] The plate was immediately read at 440 nm using a Bio-Tek PowerWave XS microplate reader, incubated for 2-3 hours at 37° C. and then read again. Cell proliferation was determined as the percent of the control cell proliferation. The absorbance of each well at time 0 was subtracted from the value of the final reading. […] Finally, each test absorbance was divided by the average of the control absorbances and multiplied by 100 to obtain the percent of control.

[8] = tested on: L1210 murine leukemia cells; assay: L1210 murine leukemia intravenous model, survival; type: in vivo, mouse; conditions: dosed IP, FIG. 15a
Method: Antitumor activity of test peptides, administered intraperitoneally (IP), were evaluated against L1210 murine leukemia cells implanted intravenously (IV) in DBA/2 mice.
Studies generally consisted of randomly-assigned groups of 8 mice per group, which were inoculated IV with 1×10^5 cells per mouse from an in vivo leukemia cell line. In addition to groups tested with test peptides, studies usually included a vehicle-treated control group and a positive control group treated with an agent known to be active in the L1210 leukemia model. Starting one day after tumor inoculation (inoculation day defined as Day 0), mice were treated IP with either vehicle or test peptides in various schedules. Generally this consisted of treatment every other day for approximately 1 week (e.g., Days 1, 3, 5 and 7). A positive agent (e.g., cyclophosphamide) was usually given as a single IP injection on Day 1. All dosing solutions were prepared on each day of treatment. Survival was monitored daily and body weights were measured twice weekly. Anti-tumor activity was assessed by the increase in lifespan of the treated groups in comparison to the vehicle-treated control group. Studies with the L1210 leukemia model were limited to 30 days.

Sequence	biological activity [1]	Inhibition of tumor growth (B16-F1 melanoma cells)	[NaCl] for elution [4]	Inhibition of proliferation of mouse leukemia L1210 cells (L1210)	Inhibition of bFGF-mediated survival [7]	also measured
ATSLPPHSSQSP (also: D-amino acids noted, form not shown; listed as Homo sapiens) [ST100,045]	Only the retro inverso form of ST100,038, (ST100,059; SEQ ID NO.: 30) was found to be biologically active	–	–	–	–	–
PSQSSHPPLSTA ([dP][dS][dQ][dS][dS][dH][dP][dP][dL][dS][dT][dA]; listed as Homo sapiens) [ST100,059, retro inverso version of ST100,038]	biologically active	clearly inhibit tumor growth	0 mM	–	–	Inhibition of tumor growth ([2]; 100 mg/kg daily IP): does not inhibit tumor growth; Inhibition of VEGF-mediated survival/proliferation [3]: VEGF stimulation was inhibited with increasing doses; P (ANOVA) of tumor growth inhibition (B16-F1 melanoma cells; FIG. 12): < 0.05
PYDGRGDSVVYGLRKKKAARGRRAARGRR (listed as Homo sapiens) [ST100,061]	–	may be less active	–	–	–	Inhibition of bFGF mediated survival/proliferation [5]: effective in inhibiting both VEGF and bFGF; Inhibition of VEGF mediated survival/proliferation [6]: effective in inhibiting both VEGF and bFGF
RLGYVVSDGRGDYP (listed as Homo sapiens) [ST100,077]	–	–	–	Neither ST100,077 (SEQ ID NO.: 16) encoding the integrin binding domain or ST100,078 (SEQ ID NO.: 17) encoding the heparin binding domain or the simple combination of the two peptides (ST100,077 and ST100,078) blocked cell proliferation or induced cell death	–	–
RRGRAARRGRAAKKK (listed as Homo sapiens) [ST100,078]	–	–	875 mM	Neither ST100,077 (SEQ ID NO.: 16) encoding the integrin binding domain or ST100,078 (SEQ ID NO.: 17) encoding the heparin binding domain or the simple combination of the two peptides (ST100,077 and ST100,078) blocked cell proliferation or induced cell death	not as potent	–
RRGRAARRGRAAKKKRLGYVVSDGRGDYP [ST100,064, retro-inverso form of ST100,061]	–	–	875 mM	able to block cell proliferation and induce cell death	can inhibit bFGF mediated survival as effectively as ST100,061; also recorded: the most active in inhibiting bFGF stimulation	Inhibition of tumor growth ([2]; 25 mg/kg daily IP): able to inhibit tumor growth; ability to induce tumor cell death (comparison in words) (tumor cells): much more active; Survival ([8]; DBA/2 mice): statistically significant increases in survival; mice (cured mice) that survived longer than 30 days [8]: Sixty to eighty; heparin binding activity (comparison in words) [4]: much more active; also recorded: bind less strongly than ST100,082
